Data: US20190111026A1, “ANTI-TRITRICHOMONAS AGENT” (Pola Pharma Inc., priority 2016, published 2019)
In brackets after ≈: the same amount, converted by molar mass.

How the values were obtained:
[1] = system: Tritrichomonas mobilensis; assay: Anti-Tritrichomonas activity of solid ground luliconazole (viable count, growth inhibition rate); type: cell-based; settings: 35° C., 24 hours; for Viable Cell Count Ave.: 5 mg solid in 5 mL Diamond's medium with 10% adult bovine serum, 10,000 cells inoculated; for Growth Inhibition Rate: 5 mg solid in 5 mL medium, 10,000 cells, [(control-sample)/control]×100
Description: It is noted that the growth inhibition rate is calculated as follows: [(the number of viable cells of the control group−the number of viable cells of the sample group)/the number of viable cells of the control group]×100. It is preferred that the anti-Tritrichomonas effect is determined 24 to 72 hours after the inoculation of 10,000 cells of Tritrichomonas protozoa on 5 mL of liquid medium in which 5 mg of sample luliconazole is added. As the liquid medium, it is preferred to use Diamond's medium with 5% to 15% adult bovine serum added as desired.
(§1) Luliconazole was ground with a mortar to change the particle size, and the anti-Tritrichomonas activity of solid luliconazole was studied. More specifically, luliconazole having a variety of particle sizes was added in an amount of 5 mg to 5 mL of Diamond's media supplemented with 10% adult bovine serum, and 10,000 cells of Tritrichomonas mobilensis were inoculated on the media, cultured at 35° C. for 24 hours, and then measured for the number of viable T. mobilensis cells by use of a Neubauer hemocytometer. Luliconazole was not added to the control group. The growth inhibition rate was calculated as follows: [(the number of viable cells of the control group−the number of viable cells of the sample group)/the number of viable cells of the control group]×100. […] It is noted that the particle size was measured by a laser diffraction method (Microtrac MT3000, manufactured by NIKKISO CO., LTD; dispersion medium: water).

[2] = Particle size by laser diffraction method (Microtrac MT3000); type: physicochemical; settings: dispersion medium: water
Description: as §1

[3] = system: Tritrichomonas mobilensis; assay: Anti-Tritrichomonas effect of supernatant from medium stored with ground luliconazole; type: cell-based; settings: supernatant of medium stored with 5 mg ground luliconazole at 35° C. for 24 hours
Description: In order to confirm the influence of luliconazole which was eluted in the solutions in Example 2, 7 minute-ground luliconazole was added in an amount of 5 mg to Diamond's medium with 10% adult bovine serum added, and stored at 35° C. for 24 hours, and the supernatant was obtained from the Diamond's medium. Tritrichomonas mobilensis was inoculated on the supernatant, cultured at 35° C. for 24 hours and measured for the number of viable cells by use of a Neubauer hemocytometer. Luliconazole was not added to the control group. The result from the control group was 973,333±23,094 while the result from the supernatant was 1,000,000±144,222. […] In this regard as well, it is clear that luliconazole can control effectively Tritrichomonas protozoa in the intestinal tract.

[4] = system: Tritrichomonas mobilensis (T. mobilensis: USA: M776 c12); assay: Activity of luliconazole in solution against Tritrichomonas mobilensis (viable count, Neubauer hemocytometer); type: cell-based; settings: luliconazole dissolved in methanol, Diamond's medium with 10% adult bovine serum, 35° C., 24 hours
Description: The activity of luliconazole against Tritrichomonas mobilensis of the genus Tritrichomonas (T. mobilensis: USA: M776 c12) was studied. Luliconazole as synthesized according to the method disclosed in the above JP 60-218387 A was used as a sample. More specifically, Tritrichomonas protozoa were cultured on Diamond's medium with 10% adult bovine serum added. Luliconazole was dissolved in 100 μL of methanol to obtain solutions having a variety concentrations of luliconazole. The cultures were then inoculated on 5 mL of 10% adult bovine serum-added Diamond's media in which the solutions were added, cultured at 35° C. for 24 hours, and then measured for the number of viable Tritrichomonas protozoa by use of a Neubauer hemocytometer. MIC and IC50 were obtained from the number of viable protozoa. MIC was 50 μg/mL and IC50 was 10. 1 μg/mL.

[5] = from Lulicon Cream Pharmaceutical Product Interview Form 2006; cited from earlier work

Row | SMILES | Viable Cell Count Ave. [1] | Growth Inhibition Rate [1] | D50 [2] [μm] | anti-Tritrichomonas effect of supernatant [3] | number of viable cells ([3]; culture 35° C., 24 hours, control 973,333±23,094) | IC50 [4] [µg/mL] | MIC [4] [µg/mL] | solubility in water [5]
1 | N#C/C(=C1/SC[C@@H](c2ccc(Cl)cc2Cl)S1)n1ccnc1 [5-minute ground luliconazole, luliconazole] | 43,333 | 75.5 | 114.4 | – | – | – | – | –
2 | N#C/C(=C1/SC[C@@H](c2ccc(Cl)cc2Cl)S1)n1ccnc1 [6-minute ground luliconazole, luliconazole] | 20,000 | 88.7 | 96.6 | – | – | – | – | –
3 | N#C/C(=C1/SC[C@@H](c2ccc(Cl)cc2Cl)S1)n1ccnc1 [7-minute ground luliconazole, luliconazole] | 20,000 | 88.7 | 84.7 | did not have anti-Tritrichomonas effect | 1,000,000±144,222 | – | – | –
4 | N#C/C(=C1/SC[C@@H](c2ccc(Cl)cc2Cl)S1)n1ccnc1 [8-minute ground luliconazole, luliconazole] | 26,667 | 84.9 | 78.5 | – | – | – | – | –
5 | N#C/C(=C1/SC[C@@H](c2ccc(Cl)cc2Cl)S1)n1ccnc1 [Luliconazole, luliconazole] | – | – | – | – | – | 10.1 (≈ 28.5 µM) | 50 (≈ 141 µM) | insoluble in water
